Measured values taken from patent US20040258668A1 (priority 2001, published 2004).
Like-named read-outs stand apart in the source and are kept apart here.

What was measured:
[1] = test system: Sendai virus (SeV) vector SeV18+SEAP/ΔF-GFP; experiment: HA activity (virion formation) in culture media of SeV-infected LLC-MK2 cells; settings: for SeV transcription and replication (HA activity): agents added two days after infection, SeV18+SEAP/ΔF-GFP or SeV18+/ΔF-GFP, MOI=3; for SeV transcription and replication with NO-associated agents: agent added two days after infection
Procedure: (§1) LLC-MK2 (monkey kidney-derived cells) were seeded into 6-well plates at a concentration of 5×10^5 cells/well, and then cultured in MEM (Gibco-BRL, Rockville, Md.) media containing 10% fetal bovine serum (FBS: BioWhittaker, Walkersville, Md.) at 37° C. for 24 hours in a 5% CO2 incubator. Cells were washed with PBS and infected with F-deleted SeV encoding secretion-type alkaline phosphatase (SEAP)) and green fluorescence protein (GFP) genes (SeV18+SEAP/ΔF-GFP: FIG. 1) at MOI=3. […] After infection, cell culture was continued in MEM media without serum. […] Media from each culture was collected and subsequently replaced with fresh media containing the same content every two days. Heme agglutination activity (HA activity) was measured as an indicator of virion formation; lactose dehydrogenase (LDH) quantification was measured as an indicator of cell damage; and SEAP activity was measured as an indicator of the expression level of genes carried on the vector.
(§2) HA activity was measured using the method described by Kato et al., (Kato, A. et al. , Genes Cells 1, 569-579 (1996)). That is, virus-containing media was subjected to two-fold serial dilution in a 96 round bottom well plate, such that each well contained 50 ul samples. A 50 ul solution of preserved chicken blood (COSMO BIO Co., Ltd., Tokyo, Japan), diluted to 1% with PBS, was added to each well and mixed. The mixture was incubated at 4° C. for one hour. Agglutination of red blood cells was observed, and HA activity was calculated by selecting the highest virus dilution in which agglutination was still observed. Additionally, 1 HA U was considered to be equal to 1×10^6 viruses, and values were shown as a number of viruses. […] LDH quantification was conducted using a Cytotoxicity Detection Kit (Roche, Basel, Switzerland) according to the methodin the kit. […] SEAP activities were measured using a Reporter Assay Kit-SEAP (TOYOBO, Osaka, Japan) according to kit method.
(§3) That is, LLC-MK2 was plated in a 6-well plate at a concentration of 5×10^5 cells/well, and incubated in MEM media containing 10% fetal bovine serum at 37° C. for 24 hours in a 5% CO2 incubator. […] After infection, culture was continued in MEM media without serum. […] Cultured media was recovered every two days, and at this time fresh media, either with or without 5 mM aspirin, was added. The cultures were treated with aspirin for either 0, 2, 4, 6, or 8 days, and then examined. The recovered culture media was analyzed for HA activity, LDH quantification, and SEAP activity. GFP expression and cell damage were also periodically examined using fluorescence microscopy.
(§4) The experiment was conducted as described in Example 1: LLC-MK2 was plated onto a 6-well plate at a concentration of 5×10^5 cells/well, and incubated in MEM media containing 10% fetal bovine serum at 37° C. for 24 hours in a 5% CO2 incubator. […] After infection, cells were cultured in MEM media without serum for two days, then cultured in MEM media (without serum) containing agents at the recorded concentrations. Cultured media was collected every two days and replaced with a same volume of fresh media. HA activity analysis and LDH quantitative analysis were performed on recovered culture media. GFP expression and cell damage were also periodically examined using fluorescence microscopy.

[2] = test system: LLC-MK2 cells infected with SeV18+SEAP/ΔF-GFP; experiment: LDH release (cell damage) from SeV-infected LLC-MK2 cells; settings: for cell damage (LDH release): agents added two days after infection, at the concentration tested
Procedure: as §1, §2, §3, §4

Cytomegarovirus = settings: Albrecht et al. (1987); cited from earlier work
[3] = test system: Vesicular Stomatitis virus (VSV); settings: Chen et al., Virology 276 (2000); cited from earlier work
[4] = Aspirin toxicity (LD50, estimated toxicity limit); format: in vivo; settings: ⅙ of LD50
[5] = test system: LLC-MK2 cells infected with SeV18+SEAP/ΔF-GFP; experiment: GFP expression and cell damage by fluorescence microscopy; settings: 5 mM aspirin
Procedure: LLC-MK2 (monkey kidney-derived cells) were seeded into 6-well plates at a concentration of 5×10^5 cells/well, and then cultured in MEM (Gibco-BRL, Rockville, Md.) media containing 10% fetal bovine serum (FBS: BioWhittaker, Walkersville, Md.) at 37° C. for 24 hours in a 5% CO2 incubator. Cells were washed with PBS and infected with F-deleted SeV encoding secretion-type alkaline phosphatase (SEAP)) and green fluorescence protein (GFP) genes (SeV18+SEAP/ΔF-GFP: FIG. 1) at MOI=3. […] After infection, cell culture was continued in MEM media without serum. Two days after infection, the media was replaced with MEM media (without serum) containing 0.625, 1.25, 2.5, and 5 mM of aspirin, or no aspirin. […] Heme agglutination activity (HA activity) was measured as an indicator of virion formation; lactose dehydrogenase (LDH) quantification was measured as an indicator of cell damage; and SEAP activity was measured as an indicator of the expression level of genes carried on the vector.
GFP expression level and cell damage were also periodically observed using fluorescence microscopy.
That is, LLC-MK2 was plated in a 6-well plate at a concentration of 5×10^5 cells/well, and incubated in MEM media containing 10% fetal bovine serum at 37° C. for 24 hours in a 5% CO2 incubator. […] The recovered culture media was analyzed for HA activity, LDH quantification, and SEAP activity. […]

[6] = test system: SEAP gene carried on SeV18+SEAP/ΔF-GFP
Procedure: LLC-MK2 (monkey kidney-derived cells) were seeded into 6-well plates at a concentration of 5×10^5 cells/well, and then cultured in MEM (Gibco-BRL, Rockville, Md.) media containing 10% fetal bovine serum (FBS: BioWhittaker, Walkersville, Md.) at 37° C. for 24 hours in a 5% CO2 incubator. Cells were washed with PBS and infected with F-deleted SeV encoding secretion-type alkaline phosphatase (SEAP)) and green fluorescence protein (GFP) genes (SeV18+SEAP/ΔF-GFP: FIG. 1) at MOI=3. […] After infection, cell culture was continued in MEM media without serum. Two days after infection, the media was replaced with MEM media (without serum) containing 0.625, 1.25, 2.5, and 5 mM of aspirin, or no aspirin. Media from each culture was collected and subsequently replaced with fresh media containing the same content every two days.
SEAP activities were measured using a Reporter Assay Kit-SEAP (TOYOBO, Osaka, Japan) according to kit method.

[7] = 5 mM aspirin, regardless of length of treatment
[8] = 0.625-5 mM aspirin added two days after infection

With `O=C(O)Cc1ccccc1Nc1c(Cl)cccc1Cl` [Diclofenac sodium] the “SeV transcription and replication (HA activity)” value [1] was “suppressed SeV transcription and replication” and the “cell damage (LDH release)” value [2] was “enhanced cell damage”.

With `CC(C(=O)O)c1ccc(-c2ccccc2)c(F)c1` (centres unmarked) [Flurbiprofen] the “SeV transcription and replication (HA activity)” value [1] was “suppressed SeV transcription and replication” and the “cell damage (LDH release)” value [2] was “only moderately reduced cell damage”.

With `CC(C(=O)O)c1cccc(C(=O)c2ccccc2)c1` (centres unmarked) [Ketoprofen] the “SeV transcription and replication (HA activity)” value [1] was “suppressed SeV transcription and replication” and the “cell damage (LDH release)” value [2] was “reduced cell damage”.

For `Cc1cccc(Nc2ccccc2C(=O)O)c1C` [Mefenamic acid], the “SeV transcription and replication (HA activity)” value [1] was “suppressed SeV transcription and replication” and the “cell damage (LDH release)” value [2] was “enhanced cell damage”.

For `COc1ccc(Cc2nccc3cc(OC)c(OC)cc23)cc1OC` [Papaverin], the Cytomegarovirus multiplication (Cytomegarovirus) is listed as “suppress Cytomegarovirus multiplication”, the “SeV transcription and replication (HA activity)” value [1] is listed as “suppressed SeV transcription and replication” and the “cell damage (LDH release)” value [2] is listed as “enhanced cell damage”.

In the case of `CC(=O)Oc1ccccc1C(=O)O` [aspirin, acetylsalicylic acid], the “multiplication of VSV” value [3] is given as “suppressed the multiplication of the Vesicular Stomatitis virus (VSV)”, the “HA activity (virion formation)” value ([1]; 5 mM aspirin added two days after infection, MOI=3, LLC-MK2) is given as “suppressed the increase in HA activity” and the “time after end of aspirin treatment until HA activity and virion formation increase” value [1, 7] is given as “two”. The “HA activity during aspirin treatment” value ([1]; 5 mM aspirin, treatment 0, 2, 4, 6 or 8 days) was “increase in HA activity was low during aspirin treatment”, the “SeV transcription and replication (HA activity)” value [1] was “suppressed SeV transcription and replication” and the estimated toxicity limit [4] was 300 mg/kg. The “nature of suppression of SeV transcription and replication” value ([5]; after withdrawal) was “transient”, the “GFP expression and cell damage during aspirin treatment” value ([5]; treatment 0-8 days) was “GFP expression is low and cell damage is not observed” and the SEAP activity ([6]; 5 mM aspirin) was “most significant decrease in activity”. The SEAP activity [6, 8] was “concentration-dependent decrease in SEAP activity”, the “cell damage (LDH)” value ([2]; 5 mM aspirin) was “Almost no cell damage was observed” and the “time after end of aspirin treatment until LDH increases” value [2, 7] was “four”. For the same compound, the LDH release [2, 8] was “concentration-dependent decrease in LDH release” and the “cell damage (LDH release)” value [2] was “reducing cytotoxicity”.

For `COc1ccc2c(c1)c(CC(=O)O)c(C)n2C(=O)c1ccc(Cl)cc1` [indomethacin, Indomethacin], the “SeV transcription and replication (HA activity)” value [1] was “suppressed SeV transcription and replication” and the “cell damage (LDH release)” value [2] was “only moderately reduced cell damage”.

With `O=[N+]([O-])O[C@H]1CO[C@H]2[C@@H]1OC[C@H]2O[N+](=O)[O-]` [isosorbide dinitrate] the “SeV transcription and replication with NO-associated agents” value [1] was “did not significantly suppress transcription and replication”.

In the case of `O=C(NCCO[N+](=O)[O-])c1cccnc1` [nicorandil], the “SeV transcription and replication with NO-associated agents” value [1] was “did not significantly suppress transcription and replication”.
